The target of experiment [1] is T1, TNKS1 (Homo sapiens, UniProt O95271).
T1 construct: GST-tagged Tnks-1 (1023-1327 aa, prepared in-house); made in house
Put plainly: TNKS1 activity ELISA (autoparsylation assay). Format: biochemical. The following applies: GST-tagged Tnks-1 (1023-1327 aa). In outline:
(§1)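 Autoparsylation ELISA: biotinylated NAD serves as co-substrate for plate-bound GST-TNKS1/TNKS2, incubated with test compounds. Readout is HRP luminescence after streptavidin-HRP binding, referenced to the no-inhibitor reaction, from which IC50 values are derived.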

Experiment [2] addresses T2, TNKS2 (Homo sapiens, UniProt Q9H2K2).
T2 construct: GST-tagged Tnks-2 (873-1166 aa, prepared in-house); made in house
The experiment in a line: TNKS2 activity ELISA (autoparsylation assay). Format: biochemical. The following applies: GST-tagged Tnks-2 (873-1166 aa); read-out: IC50 [M] TNKS2 ELISA. The procedure, abridged: as §1

The target in experiment [3] is T3, PARP-1 (Homo sapiens, UniProt P09874).
T3 construct: purchased Enzo Life Sciences GmbH, Lörrach, Germany
T3 sequence (P09874 whole entry): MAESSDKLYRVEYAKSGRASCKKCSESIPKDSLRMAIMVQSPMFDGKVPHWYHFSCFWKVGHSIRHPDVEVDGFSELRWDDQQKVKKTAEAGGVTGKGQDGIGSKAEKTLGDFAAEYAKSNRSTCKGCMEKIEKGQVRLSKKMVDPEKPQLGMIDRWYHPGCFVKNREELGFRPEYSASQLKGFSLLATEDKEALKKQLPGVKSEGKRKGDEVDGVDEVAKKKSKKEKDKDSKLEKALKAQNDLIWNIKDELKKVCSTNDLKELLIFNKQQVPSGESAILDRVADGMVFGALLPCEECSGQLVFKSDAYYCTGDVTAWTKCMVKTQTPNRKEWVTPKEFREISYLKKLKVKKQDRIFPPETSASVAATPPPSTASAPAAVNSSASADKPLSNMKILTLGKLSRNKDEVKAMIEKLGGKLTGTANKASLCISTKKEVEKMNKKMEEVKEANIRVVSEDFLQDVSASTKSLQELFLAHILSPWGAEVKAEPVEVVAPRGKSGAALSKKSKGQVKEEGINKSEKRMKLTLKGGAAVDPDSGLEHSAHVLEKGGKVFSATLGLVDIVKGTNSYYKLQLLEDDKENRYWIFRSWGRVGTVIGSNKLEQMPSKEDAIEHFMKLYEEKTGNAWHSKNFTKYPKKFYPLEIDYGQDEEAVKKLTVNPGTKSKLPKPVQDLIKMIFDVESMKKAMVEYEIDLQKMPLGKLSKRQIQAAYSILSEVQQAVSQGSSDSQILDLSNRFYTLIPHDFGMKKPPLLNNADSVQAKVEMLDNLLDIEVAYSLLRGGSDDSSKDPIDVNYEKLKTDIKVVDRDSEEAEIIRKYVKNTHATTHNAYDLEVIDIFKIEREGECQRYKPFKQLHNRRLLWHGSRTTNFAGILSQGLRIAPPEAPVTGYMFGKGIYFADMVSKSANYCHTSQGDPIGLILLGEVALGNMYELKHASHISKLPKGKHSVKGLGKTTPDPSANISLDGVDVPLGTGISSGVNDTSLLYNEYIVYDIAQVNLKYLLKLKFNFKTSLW
Put plainly: PARP-1 autoparsylation assay (HTRF). The experiment is classed as biochemical. The following applies: His-tagged Parp-1, autoparsylation HTRF. The procedure, abridged: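 HTRF emission ratio reports biotin-ADP-ribose self-transfer onto His-tagged PARP-1, with biotinylated NAD/NAD as co-substrate, sensed via cryptate anti-His and Xlent-streptavidin.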

Experiment [4] deals with Tankyrases. The following applies: read-out: EC50 [M] TNKS cellular assay; DLD1 cells, 24 hours, Axin2 increase.
Protocol: Measurement of Cellular Inhibition of Tankyrase
Cells of the colon carcinoma cell line DLD1 are plated in 96 well plates with 1.5×10^4 cells per well. Next day, cells are treated with a serial dilution of test compound in seven steps as triplicates with a final DMSO concentration of 0.3%. […] The amount of isolated Axin2 protein is determined in a Luminex^200 machine (Luminex Corporation) according to the manufacturer's instruction by counting 100 events per well. […] As controls cells are treated with solvent alone (neutral control) and with a Tankyrase reference inhibitor IWR-2 (3E−06 M) which refers as control for maximum increase of Axin2. For analysis, the obtained data are normalized against the untreated solvent control and fitted for determination of the EC50 values using the Assay Explorer software (Accelrys).

T2 sequence (Q9H2K2 873-1166): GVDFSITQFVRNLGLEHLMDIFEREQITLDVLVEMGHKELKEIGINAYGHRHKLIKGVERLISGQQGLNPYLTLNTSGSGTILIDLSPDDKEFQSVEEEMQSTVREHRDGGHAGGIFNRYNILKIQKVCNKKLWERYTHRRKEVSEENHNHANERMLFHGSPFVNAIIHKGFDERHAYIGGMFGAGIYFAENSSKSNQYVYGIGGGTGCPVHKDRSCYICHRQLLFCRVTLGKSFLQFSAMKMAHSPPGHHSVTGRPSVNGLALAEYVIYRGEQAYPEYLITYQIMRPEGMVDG
T1 sequence (O95271 1023-1327): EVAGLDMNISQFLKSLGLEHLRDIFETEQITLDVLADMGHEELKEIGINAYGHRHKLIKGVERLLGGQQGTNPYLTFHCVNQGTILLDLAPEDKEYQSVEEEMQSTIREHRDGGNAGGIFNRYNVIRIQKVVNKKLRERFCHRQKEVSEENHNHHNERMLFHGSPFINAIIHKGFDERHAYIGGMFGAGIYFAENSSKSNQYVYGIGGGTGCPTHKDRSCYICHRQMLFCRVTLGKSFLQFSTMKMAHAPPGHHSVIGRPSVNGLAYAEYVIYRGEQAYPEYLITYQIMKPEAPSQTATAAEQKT

Regarding `O=C(c1ccc(F)cc1)C1CCN(C(=O)CCCc2nn3cccc3c(=O)[nH]2)CC1` [Compound C142, 2-{4-[4-(4-Fluoro-benzoyl)-piperidin-1-yl]-4-oxo-butyl}-3H-pyrrolo[2,1-f][1,2,4]triazin-4-one], the IC50 in experiment [1] was determined as 14 nM; in experiment [2], 1.4e-08 M; in experiment [3], 7200 nM. Moreover, the EC50 in experiment [4] was 2e-08 M.

Consider `COc1ccc(C(=O)C2CCN(C(=O)CCCc3nn4cccc4c(=O)[nH]3)CC2)cc1C` [Compound C143, 2-{4-[4-(4-Methoxy-3-methyl-benzoyl)-piperidin-1-yl]-4-oxo-butyl}-3H-pyrrolo[2,1-f][1,2,4]triazin-4-one], for which the IC50 amounted to 0.19 nM in experiment [1], 1.6e-10 M in experiment [2] and 4800 nM in experiment [3]. For the same compound, the EC50 in experiment [4] worked out at 1.7e-09 M.

In the case of `CC(C)(O)c1ccc(C(=O)C2CCN(C(=O)CCCc3nn4cccc4c(=O)[nH]3)CC2)cc1` [Compound C144, 2-(4-{4-[4-(1-Hydroxy-1-methyl-ethyl)-benzoyl]-piperidin-1-yl}-4-oxo-butyl)-3H-pyrrolo[2,1-f][1,2,4]triazin-4-one], the IC50 was 7.3 nM in experiment [1], 3.5e-09 M in experiment [2] and 11000 nM in experiment [3]. Moreover, in experiment [4], the EC50 is 8.3e-08 M.

Take `COc1ccc(C(=O)C2CCN(C(=O)CCCc3nn4c(C)ccc4c(=O)[nH]3)CC2)cc1F` [Compound C147, 2-{4-[4-(3-Fluoro-4-methoxy-benzoyl)-piperidin-1-yl]-4-oxo-butyl}-7-methyl-3H-pyrrolo[2,1-f][1,2,4]triazin-4-one]: the IC50 in experiment [1] was less than 0.1 nM; in experiment [2], less than 1e-10 M; in experiment [3] it was 370 nM. The EC50 in experiment [4] was found to be 8.1e-10 M.

Consider `COc1ccc(C(=O)C2CCN(C(=O)CCCc3nn4c(C)ccc4c(=O)[nH]3)CC2)cn1` [Compound C148, 2-{4-[4-(6-Methoxy-pyridine-3-carbonyl)-piperidin-1-yl]-4-oxo-butyl}-7-methyl-3H-pyrrolo[2,1-f][1,2,4]triazin-4-one], for which the results for the IC50 in experiment [1], in experiment [2] and in experiment [3] were 0.28 nM, 1.9e-10 M and 770 nM, respectively. The EC50 in experiment [4] came to 1.4e-09 M.

Turning to `Cc1ccc2c(=O)[nH]c(CCCC(=O)N3CCC(c4cnc(N)c(C#N)c4)CC3)nn12` [Compound C149, 6-Amino-1′-[4-(7-methyl-4-oxo-3,4-dihydro-pyrrolo[2,1-f][1,2,4]triazin-2-yl)-butyryl]-1′,2′,3′,4′,5′,6′-hexahydro-[3,4′]bipyridinyl-5-carbonitrile], the values for the IC50 in experiment [1], in experiment [2] and in experiment [3] were 0.38 nM, 3.8e-10 M and 770 nM, respectively. Also, the EC50 in experiment [4] worked out at 3.1e-09 M.

For the compound `Cc1ccc2c(=O)[nH]c(CCCC(=O)N3CCC(c4cnc(N)c(-c5ncccn5)c4)CC3)nn12` [Compound C150, 2-[4-(6-Amino-5-pyrimidin-2-yl-3′,4′,5′,6′-tetrahydro-2′H-[3,4′]bipyridinyl-1′-yl)-4-oxo-butyl]-7-methyl-3H-pyrrolo[2,1-f][1,2,4]triazin-4-one], the values for the IC50 in experiment [1], in experiment [2] and in experiment [3] were 0.23 nM, 2.8e-10 M and 1300 nM, respectively. For the same compound, in experiment [4], the EC50 is 1.1e-09 M.

For `Cc1ccc2c(=O)[nH]c(CCCC(=O)N3CCC(c4nnc(-c5ccccc5)o4)CC3)nn12` [Compound C151, 7-Methyl-2-{4-oxo-4-[4-(5-phenyl-[1,3,4]oxadiazol-2-yl)-piperidin-1-yl]-butyl}-3H-pyrrolo[2,1-f][1,2,4]triazin-4-one], the figures for the IC50 in experiment [1], in experiment [2] and in experiment [3] were 1.4 nM, 9.3e-10 M and 210 nM, respectively. Also, the EC50 in experiment [4] is 1.9e-08 M.

Regarding `Cc1ccc2c(=O)[nH]c(CCCC(=O)N3CCC(C(=O)c4ccc(F)cc4)CC3)nn12` [Compound C153, 2-{4-[4-(4-Fluoro-benzoyl)-piperidin-1-yl]-4-oxo-butyl}-7-methyl-3H-pyrrolo[2,1-f][1,2,4]triazin-4-one], the IC50 in experiment [1] turned out to be 0.17 nM; in experiment [2], 1.6e-10 M; in experiment [3], 2000 nM. In addition, in experiment [4], the EC50 stood at 1.7e-09 M.

In the case of `COc1ccc(C(=O)C2CCN(C(=O)CCCc3nn4c(C)ccc4c(=O)[nH]3)CC2)cc1C` [Compound C154, 2-{4-[4-(4-Methoxy-3-methyl-benzoyl)-piperidin-1-yl]-4-oxo-butyl}-7-methyl-3H-pyrrolo[2,1-f][1,2,4]triazin-4-one], the IC50 in experiment [1] worked out at 0.16 nM; in experiment [2], 1.3e-10 M; in experiment [3] it was 610 nM. For the same compound, the EC50 in experiment [4] was 9.7e-10 M.

`Cc1ccc2c(=O)[nH]c(CCCC(=O)N3CCC(C(=O)c4ccc(C(C)(C)O)cc4)CC3)nn12` [Compound C155, 2-(4-{4-[4-(1-Hydroxy-1-methyl-ethyl)-benzoyl]-piperidin-1-yl}-4-oxo-butyl)-7-methyl-3H-pyrrolo[2,1-f][1,2,4]triazin-4-one]: the IC50 in experiment [1] came to 0.57 nM; in experiment [2] it was 3.8e-10 M; in experiment [3], 600 nM. Besides, the EC50 in experiment [4] was found to be 1.6e-08 M.

With `COc1ccc(C(=O)C2CCN(C(=O)CCCc3nn4cc(C)cc4c(=O)[nH]3)CC2)cc1F` [Compound C158, 2-{4-[4-(3-Fluoro-4-methoxy-benzoyl)-piperidin-1-yl]-4-oxo-butyl}-6-methyl-3H-pyrrolo[2,1-f][1,2,4]triazin-4-one], the results for the IC50 in experiment [1], in experiment [2] and in experiment [3] were 0.44 nM, 9.2e-10 M and 2100 nM, respectively. In addition, the EC50 in experiment [4] is 4.4e-09 M.

Take `COc1ccc(C(=O)C2CCN(C(=O)CCCc3nn4cc(C)cc4c(=O)[nH]3)CC2)cn1` [Compound C159, 2-{4-[4-(6-Methoxy-pyridine-3-carbonyl)-piperidin-1-yl]-4-oxo-butyl}-6-methyl-3H-pyrrolo[2,1-f][1,2,4]triazin-4-one]: the IC50 in experiment [1] came to 1.2 nM; in experiment [2], 2.7e-09 M; in experiment [3] it was 2200 nM. Also, in experiment [4], the EC50 came to 3.6e-08 M.

Regarding `Cc1cc2c(=O)[nH]c(CCCC(=O)N3CCC(c4cnc(N)c(C#N)c4)CC3)nn2c1` [Compound C160, 6-Amino-1′-[4-(6-methyl-4-oxo-3,4-dihydro-pyrrolo[2,1-f][1,2,4]triazin-2-yl)-butyryl]-1′,2′,3′,4′,5′,6′-hexahydro-[3,4′]bipyridinyl-5-carbonitrile], the IC50 in experiment [1] turned out to be 1.8 nM; in experiment [2], 1e-08 M; in experiment [3], 3300 nM. In addition, the EC50 in experiment [4] was determined as 4.9e-08 M.

Regarding `Cc1cc2c(=O)[nH]c(CCCC(=O)N3CCC(c4cnc(N)c(-c5ncccn5)c4)CC3)nn2c1` [Compound C161, 2-[4-(6-Amino-5-pyrimidin-2-yl-3′,4′,5′,6′-tetrahydro-2′H-[3,4′]bipyridinyl-1′-yl)-4-oxo-butyl]-6-methyl-3H-pyrrolo[2,1-f][1,2,4]triazin-4-one], the IC50 turned out to be 0.62 nM in experiment [1], 2.9e-09 M in experiment [2] and 4300 nM in experiment [3]. For the same compound, the EC50 in experiment [4] is 9.7e-09 M.

As for `Cc1cc2c(=O)[nH]c(CCCC(=O)N3CCC(c4nnc(-c5ccccc5)o4)CC3)nn2c1` [Compound C162, 6-Methyl-2-{4-oxo-4-[4-(5-phenyl-[1,3,4]oxadiazol-2-yl)-piperidin-1-yl]-butyl}-3H-pyrrolo[2,1-f][1,2,4]triazin-4-one], the IC50 in experiment [1] came out at 20 nM; in experiment [2], 3.7e-08 M; in experiment [3], 1400 nM. In experiment [4], the EC50 was 5e-07 M.
